The subject of one assay is p38α. Nature of the assay: glycine-rich loop FLiK binding assay (library screen). To be noted: initial library screen.
Another assay concerns the target T1, p38α MAPK insert (Homo sapiens, UniProt Q16539, C119S/C162S/S252C).
T1 construct: His-tag with PreScission Protease cleavage site (N); made in house; host or cells: E. coli BL21(DE3) Codon+RIL
Nature of the assay: FLiK direct binding assay, acrylodan-labeled p38α (S252C) MAPK insert / lipid binding site. To be noted: binding to p38α MAPK insert; ratiometric acrylodan emission; each concentration in triplicate. The protocol:
The human p38α kinase construct containing the mutations required for specific labeling (C119S/C162S/S252C) as well as wild type p38α were cloned into a pOPINF vector and transformed as an N-terminal His-tag construct with a PreScission Protease cleavage site into BL21(DE3) Codon+RIL E. coli. Protein expression, purification, fluorophore labeling and verification of mono-labeling of the kinase were performed essentially as described previously. Labeling of the mutant p38α protein with thiol-reactive acrylodan was carried out by adding a 1.5∶1 molar excess of the fluorophore (dissolved in DMSO) to the purified protein in 50 mM Hepes Buffer (pH 7.0). The mixture was allowed to react in the dark overnight at 4°C. Unreacted acrylodan was subsequently removed by three cycles of buffer exchange into FLiK Measurement Buffer (50 mM Hepes Buffer, pH 7.4+200 mM NaCl) using a 10k-MWCO Centricon. The protein was concentrated to ∼200 μM, aliquoted and frozen at −80°C. Mono-labeling of the protein was verified by ESI-MS as described previously, [24].
Characterization of the fluorescence response of MAP insert-labeled p38α was carried out as described previously for p38α labeled on the activation loop. […] Briefly, a polystyrene cuvette containing a suspension of 50 nM acrylodan-labeled p38α in FLiK Buffer was excited at 386 nm and emission spectra were measured in the absence and presence of increasing concentrations of 1b. The compound was dissolved in 100% DMSO and delivered in sequential small doses to a single sample. […] Ratiometric fluorescence readouts are advantageous in that they provide an internal correction for small errors in sample volume which can affect signal intensity. All measurements of the cuvettes were made with a JASCO FP-6500 fluorescence spectrophotometer (JASCO GmbH, Germany).
The assay was adapted to high-throughput screening formats which enabled KD values to be determined in black small volume assay plates. Briefly, a dilution series of each compound was first prepared in 100% DMSO at 20X the desired final concentration and 1 μL was transferred to the assay plate. Compounds were then mixed with 19 µL of FLiK Buffer (supplemented with 0.01% Triton X-100) containing acrylodan-labeled p38α (100 nM). The final concentration of compound in the dilution series ranged from 0–50 μM (5% v/v DMSO final). Plates were covered with an adhesive aluminum foil and incubated for 30 min at RT prior to measurement of emission intensities at 470 and 520 nm using a Tecan Safire^2 plate reader. […] Binding curves were plotted using the ratio R = I520/I470 to determine the KD.

“And” between values parts separate entries of the source, which are not always exact repeats. Equal entries are not always repeated.

T1 sequence (Q16539 whole entry C119S/C162S/S252C): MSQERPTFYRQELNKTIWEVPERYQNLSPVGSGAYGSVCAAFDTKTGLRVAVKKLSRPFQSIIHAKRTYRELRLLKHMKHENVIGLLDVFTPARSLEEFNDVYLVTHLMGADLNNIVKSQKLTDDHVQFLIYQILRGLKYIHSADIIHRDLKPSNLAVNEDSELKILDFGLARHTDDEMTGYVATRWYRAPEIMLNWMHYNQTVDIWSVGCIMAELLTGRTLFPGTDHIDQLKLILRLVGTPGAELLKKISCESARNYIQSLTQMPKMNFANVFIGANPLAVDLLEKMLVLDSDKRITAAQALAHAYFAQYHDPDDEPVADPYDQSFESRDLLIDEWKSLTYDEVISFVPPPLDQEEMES

With `Nc1ccc2c(NC3CC3)nc(-c3ccccc3)nc2c1` [1b, N^4-Cyclopropyl-2-phenyl-4,7-quinazolinediamine], the “binding detected by glycine-rich loop FLiK assay” value in the assay on p38α is on record as “weakly detected”. Moreover, at p38α MAPK insert, the Kd was ~2400 nM and 2400 nM.

For orientation: Kd means a measure of binding affinity in units of concentration.

(Values after PMC3388095, “Fluorophore Labeled Kinase Detects Ligands That Bind within the MAPK Insert of p38α Kinase” (PLoS ONE, 2012).)
